Reference: patent US10548911B2, “Small molecule anti-scarring agents” (UNIVERSITY OF ROCHESTER, priority 2014, dated 2020)

Assays:
TGFβ signaling = assay: Chembridge collection screen with HEK293-Thy1 SBE-Luc cell line (normalized luciferase activity); assay type: cell-based, human; conditions: Chembridge collection re-screen
Text: Using the recombinant HEK293-Thy1 SBE-Luc cell line described in the preceding Examples, the Chembridge collection of 20,000 small molecules was screened to identify other small molecules that inhibit TGFβ activity and, thus, may be novel anti-scarring compounds
100 top candidates from the initial screen were re-screened. Numbers indicate the Chembride molecule ID number. The second screen controls for toxicity and non-specific effects by using a constitutive luciferase to normalize results. This assay can be further used in a high throughput fashion to analyze newly derived compounds and monitor structure activity relationships (SAR) to discover new molecules that can serve as the basis for anti-scarring therapeutics.
The two-dimensional structures of the molecules are depicted in the left hand column. Chembridge collection IDs are listed in the second column and the additional columns denote the following (in order): the molecular name, the percent inhibition of the molecule using the screen (100% being a complete inhibition) (% Inhib.), and the internal key (key) for further identification in FIGS. 22 and 23.

[1] = system: human orbital fibroblasts; assay: Myofibroblast formation assay (cell images) of Chembridge hits in human orbital fibroblasts; assay type: cell-based
Method: FIG. 22 is a panel of cell images showing efficacy of selected Chembridge hits in myofibroblast formation assays using human orbital fibroblasts. […] Key: SNC: salinomycin control; A1: 5255687; A2:5130037; A4:9040737; B3:9057423; C2:9018748; C3:9048694; C4:9022265.
(§1) Selected Chembridge hits were tested in myofibroblast formation assays using human orbital fibroblasts (FIG. 22) and human lung fibroblasts (FIG. 23).

human lung fibroblasts = assay: Myofibroblast formation assay (cell images) of Chembridge hits in human lung fibroblasts; assay type: cell-based
Method: FIG. 23 is a panel of cell images showing efficacy of selected Chembridge hits in myofibroblast formation assays using human lung fibroblasts. […] Key: SNC: salinomycin control; A1: 5255687; A2:5130037; A4:9040737; B3:9057423; C2:9018748; C3:9048694; C4:9022265.
as §1

[2] = system: TGFβ-induced myofibroblast formation in human fibroblasts; assay: Western blot of myofibroblast markers αSMA and calponin in TGFβ-treated human (TED orbital) fibroblasts; assay type: cell-based; conditions: 250 nM, TGFβ, 72 hours
Method: TED fibroblasts were treated with TGFβ (1 ng/ml) in the presence or absence of 10-250 nM salinomycin for 72 hours to allow formation of myofibroblasts. After 72 hours, cells were harvested and analyzed by Western blot. As expected, the fibroblasts robustly responded to TGFβ, expressing high levels of αSMA and calponin (FIG. 2A). […] At 50 nM salinomycin, expression of αSMA was reduced by 4-fold over TGFβ treatment alone. Furthermore, at 250 nM salinomycin, αSMA expression was reduced by approximately 16-fold, to levels at or below untreated fibroblasts. […] Another key role of myofibroblasts in scar formation is the production of collagen. Whether salinomycin could block myofibroblast collagen production was assessed. Cells were treated with TGFβ and salinomycin as above and after 72 hours, culture medium was collected and analyzed for collagen levels using a specific collagen I antibody and slot blot analysis.
To test these four compounds, human fibroblasts were treated with TGFβ in the absence or presence of 250 nM of either salinomycin, narasin, clioquinol or monensin for 72 hours. After treatment, cell lysates were harvested and analyzed for the presence of the myofibroblast markers, αSMA and calponin (FIG. 3B).

SMILES | % Inhib. (percent inhibition of the molecule using the screen, 100% being a complete inhibition) (TGFβ signaling) | TGFβ induced myofibroblast formation (cell images) [1] | cell death (cell images) [1] | TGFβ induced myofibroblast formation (cell images) (human lung fibroblasts) | cell death (cell images) (human lung fibroblasts) | expression of αSMA and calponin [2]
Cc1cc(S(=O)(=O)NCc2ccncc2)ccc1F [compound 9021391, 4-fluoro-3-methyl-N-(4-pyridinylmethyl)benzenesulfonamide] | 66% |  |  |  |  | 
Cc1nn2c(=O)cc(-c3ccc(Cl)cc3)[nH]c2c1-c1ccccc1 [compound 9080334, 5-(4-chlorophenyl)-2-methyl-3-phenylpyrazolo[1,5-a]pyrimidin-7(4H)-one] | 41% |  |  |  |  | 
COc1ccccc1NC(=O)C#Cc1ccccc1 [compound 9048694, N-(2-methoxyphenyl)-3-phenyl-2-propynamide] | 92% | preventing TGFβ induced myofibroblast formation | not causing cell death | preventing TGFβ induced myofibroblast formation | not causing cell death | 
Cc1cc(Cl)c(Cl)cc1S(=O)(=O)NCc1ccncc1 [compound 9018748, 4,5-dichloro-2-methyl-N-(4-pyridinylmethyl)benzenesulfonamide] | 95% | preventing TGFβ induced myofibroblast formation | not causing cell death | preventing TGFβ induced myofibroblast formation | not causing cell death | 
Cc1ccc(C(C)NC(=O)c2c(Cl)cnn2C)cc1C (stereo not shown) [compound 9043411, 4-chloro-N-[1-(3,4-dimethylphenyl)ethyl]-1-methyl-1H-pyrazole-5-carboxamide] | 37% |  |  |  |  | 
O=C(Nc1nc2ccccc2[nH]1)c1ccccc1Br [compound 7263741, N-1H-benzimidazol-2-yl-2-bromobenzamide] | 46% |  |  |  |  | 
CNC(=O)c1ccccc1OCCOc1ccccc1 [compound 9057423, N-methyl-2-(2-phenoxyethoxy)benzamide] | 51% | preventing TGFβ induced myofibroblast formation | not causing cell death | preventing TGFβ induced myofibroblast formation | not causing cell death | 
CC(Nc1ncnc2c1oc1ccccc12)c1ccccc1.Cl (stereo not shown) [compound 9104696, N-(1-phenylethyl)[1]benzofuro[3,2-d]pyrimidin-4-amine hydrochloride] | 75% |  |  |  |  | 
Cc1nn2c(=O)cc(-c3ccccc3)[nH]c2c1-c1ccc(F)cc1 [compound 9040737, 3-(4-fluorophenyl)-2-methyl-5-phenylpyrazolo[1,5-a]pyrimidin-7(4H)-one] | 63% | preventing TGFβ induced myofibroblast formation | not causing cell death | preventing TGFβ induced myofibroblast formation | not causing cell death | 
Cc1cc(C)c(C(=O)/C=C/c2ccccc2Cl)c(=O)[nH]1 [compound 5255687, 3-[3-(2-chlorophenyl)acryloyl]-4,6-dimethyl-2(1H)-pyridinone] | 70% | preventing TGFβ induced myofibroblast formation | not causing cell death | preventing TGFβ induced myofibroblast formation | not causing cell death | 
OCc1ccc(Sc2ccc(Cl)cc2)o1 [compound 7586770, {5-[(4-chlorophenyl)thio]-2-furyl}methanol] | 80% |  |  |  |  | 
Oc1c(I)cc(Cl)c2cccnc12 [clioquinol] |  |  |  |  |  | did not inhibit
CCOC(=O)c1c(N)sc2c1CCC/C2=N/O [compound 5130037, ethyl 2-amino-7-(hydroxyimino)-4,5,6,7-tetrahydro-1-benzothiophene-3-carboxylate] | 68% | preventing TGFβ induced myofibroblast formation | not causing cell death | preventing TGFβ induced myofibroblast formation | not causing cell death | 
CCOc1ccc(S(=O)(=O)NCc2ccncc2)c(C)c1C [compound 9022265, 4-ethoxy-2,3-dimethyl-N-(4-pyridinylmethyl)benzenesulfonamide] | 84% | preventing TGFβ induced myofibroblast formation | not causing cell death | preventing TGFβ induced myofibroblast formation | not causing cell death | 
O=S(=O)(NCc1ccncc1)c1cccc(F)c1 [compound 9019912, 3-fluoro-N-(4-pyridinylmethyl)benzenesulfonamide] | 58% |  |  |  |  | 
CC[C@@]1([C@@H]2O[C@@H]([C@H]3O[C@@](O)(CO)[C@H](C)C[C@@H]3C)C[C@@H]2C)CC[C@H]([C@]2(C)CC[C@]3(C[C@H](O)[C@@H](C)[C@@H]([C@@H](C)[C@@H](OC)[C@H](C)C(=O)O)O3)O2)O1 [monensin] |  |  |  |  |  | inhibited expression of αSMA and calponin
Cc1ccc(NC2=Nn3c(Cc4ccccc4)nnc3SC2)cc1 [compound 9016022, 3-benzyl-N-(4-methylphenyl)-7H-[1,2,4]triazolo[3,4-b][1,3,4]thiadiazin-6-amine] | 46% |  |  |  |  | 
CC1=Nc2ccccc2NC2=C1C(=O)CC(c1ccco1)C2 (stereo not shown) [compound 9025733, 3-(2-furyl)-11-methyl-2,3,4,5-tetrahydro-1H-dibenzo[b,e][1,4]diazepin-1-one] | 84% |  |  |  |  | 
CCN(CC)C(=O)c1ccc(Cl)c(N)c1 [compound 9116592, 3-amino-4-chloro-N,N-diethylbenzamide] | 92% |  |  |  |  | 
CC(C)(C)NS(=O)(=O)c1ccc(NC(=O)c2ccncc2)cc1 [compound 9038066, N-{4-[(tert-butylamino)sulfonyl]phenyl}isonicotinamide] | 54% |  |  |  |  | 
C=CCOc1ccc(NC(=O)c2ccc(CN3CCOCC3)cc2)cc1 [compound 7991998, N-[4-(allyloxy)phenyl]-4-(4-morpholinomethyl)benzamide] | 60% |  |  |  |  | 
